Test results from the NIST ThermoML archive (doi:10.1016/j.fluid.2015.12.007).

Assay: xn = mol fraction of the nth substance listed
Conditions: 101 kPa, Liquid; for speed of sound: Sing-around technique in a fixed-path interferometer; for mass density: Vibrating tube method

CC(O)CO (centres undefined) [1,2-propanediol] + CCCCn1cc[n+](C)c1.F[B-](F)(F)F
Conditions	mass density [kg/m3]	speed of sound [m/s]
293.15 K, x2 = 0.0521	1056.41	1527.9
293.15 K, x2 = 0.1068	1074.4	1532.7
293.15 K, x2 = 0.2089	1101.55	1538.5
293.15 K, x2 = 0.3074	1122.27	1543.9
293.15 K, x2 = 0.4035	1139.05	1549.8
293.15 K, x2 = 0.5031	1153.8	1554.6
293.15 K, x2 = 0.5907	1164.95	1559
293.15 K, x2 = 0.7031	1177.42	1564.6
293.15 K, x2 = 0.8	1187.25	1568.6
293.15 K, x2 = 0.8992	1196.18	1572
298.15 K, x2 = 0.0521	1052.69	1515.3
298.15 K, x2 = 0.1068	1070.64	1520
298.15 K, x2 = 0.2089	1097.72	1526.2
298.15 K, x2 = 0.3074	1118.42	1531.5
298.15 K, x2 = 0.4035	1135.23	1537.5
298.15 K, x2 = 0.5031	1150.01	1542.5
298.15 K, x2 = 0.5907	1161.21	1547
298.15 K, x2 = 0.7031	1173.74	1552.6
298.15 K, x2 = 0.8	1183.62	1556.7
298.15 K, x2 = 0.8992	1192.57	1560.5
303.15 K, x2 = 0.0521	1048.94	1502.2
303.15 K, x2 = 0.1068	1066.85	1507
303.15 K, x2 = 0.2089	1093.89	1513.8
303.15 K, x2 = 0.3074	1114.58	1519.2
303.15 K, x2 = 0.4035	1131.41	1525.3
303.15 K, x2 = 0.5031	1146.23	1530.3
303.15 K, x2 = 0.5907	1157.48	1535
303.15 K, x2 = 0.7031	1170.07	1540.7
303.15 K, x2 = 0.8	1180	1544.9
303.15 K, x2 = 0.8992	1188.99	1549
308.15 K, x2 = 0.0521	1045.16	1488.9
308.15 K, x2 = 0.1068	1063.06	1494
308.15 K, x2 = 0.2089	1090.06	1501.1
308.15 K, x2 = 0.3074	1110.75	1506.8
308.15 K, x2 = 0.4035	1127.62	1513.1
308.15 K, x2 = 0.5031	1142.48	1518.2
308.15 K, x2 = 0.5907	1153.77	1523
308.15 K, x2 = 0.7031	1166.42	1528.9
308.15 K, x2 = 0.8	1176.39	1533.2
308.15 K, x2 = 0.8992	1185.42	1537.5
313.15 K, x2 = 0.0521	1041.36	1475.6
313.15 K, x2 = 0.1068	1059.24	1481.1
313.15 K, x2 = 0.2089	1086.22	1488.5
313.15 K, x2 = 0.3074	1106.92	1494.5
313.15 K, x2 = 0.4035	1123.83	1501
313.15 K, x2 = 0.5031	1138.74	1506.2
313.15 K, x2 = 0.5907	1150.08	1511.1
313.15 K, x2 = 0.7031	1162.79	–
313.15 K, x2 = 0.8	1172.81	1521.7
313.15 K, x2 = 0.8992	1181.86	1526.1
318.15 K, x2 = 0.0521	1037.53	1462.3
318.15 K, x2 = 0.1068	1055.4	1468.1
318.15 K, x2 = 0.2089	1082.38	1476
318.15 K, x2 = 0.3074	1103.1	1482.3
318.15 K, x2 = 0.4035	1120.04	1488.9
318.15 K, x2 = 0.5031	1135.01	1494.3
318.15 K, x2 = 0.5907	1146.4	1499.4
318.15 K, x2 = 0.7031	1159.17	1505.6
318.15 K, x2 = 0.8	1169.23	1510.3
318.15 K, x2 = 0.8992	1178.32	1515

CC(O)CO (centres undefined) [1,2-propanediol] + CCCC[n+]1ccn(C)c1.O=S(=O)([N-]S(=O)(=O)C(F)(F)F)C(F)(F)F
Conditions	mass density [kg/m3]	speed of sound [m/s]
293.15 K, x2 = 0.0606	1117.8	1446.5
293.15 K, x2 = 0.1118	1168.99	1406.4
293.15 K, x2 = 0.2003	1234.54	1358.1
293.15 K, x2 = 0.3056	1289.66	1319.6
293.15 K, x2 = 0.408	1328.41	1294.8
293.15 K, x2 = 0.4987	1355.11	1279.5
293.15 K, x2 = 0.602	1379.69	1265.9
293.15 K, x2 = 0.7047	1399.49	1256.2
293.15 K, x2 = 0.7945	1413.97	1249.2
293.15 K, x2 = 0.8971	1428	1243.5
298.15 K, x2 = 0.0606	1113.84	1435.8
298.15 K, x2 = 0.1118	1164.21	1395.8
298.15 K, x2 = 0.2003	1230.02	1345.7
298.15 K, x2 = 0.3056	1284.95	1307.6
298.15 K, x2 = 0.408	1323.62	1283.1
298.15 K, x2 = 0.4987	1350.28	1268
298.15 K, x2 = 0.602	1374.74	1254.5
298.15 K, x2 = 0.7047	1394.49	1244.9
298.15 K, x2 = 0.7945	1409	1238
298.15 K, x2 = 0.8971	1423.19	1232.2
303.15 K, x2 = 0.0606	1109.82	1422.8
303.15 K, x2 = 0.1118	1161.05	1382.1
303.15 K, x2 = 0.2003	1225.5	1333.5
303.15 K, x2 = 0.3056	1280.27	1295.7
303.15 K, x2 = 0.408	1318.85	1271.4
303.15 K, x2 = 0.4987	1345.27	1256.6
303.15 K, x2 = 0.602	1369.61	1243.2
303.15 K, x2 = 0.7047	1389.48	1233.8
303.15 K, x2 = 0.7945	1404.07	1226.9
303.15 K, x2 = 0.8971	1418.39	1221.1
308.15 K, x2 = 0.0606	1105.77	1408.7
308.15 K, x2 = 0.1118	1156.91	1367.8
308.15 K, x2 = 0.2003	1220.98	1321.3
308.15 K, x2 = 0.3056	1275.59	1283.8
308.15 K, x2 = 0.408	1314.09	1259.9
308.15 K, x2 = 0.4987	1340.46	1245.3
308.15 K, x2 = 0.602	1364.78	1232
308.15 K, x2 = 0.7047	1384.7	1222.7
308.15 K, x2 = 0.7945	1399.37	1215.9
308.15 K, x2 = 0.8971	1413.61	1210.2
313.15 K, x2 = 0.0606	1101.68	1396.5
313.15 K, x2 = 0.1118	1152.58	1356.3
313.15 K, x2 = 0.2003	1216.47	1309.3
313.15 K, x2 = 0.3056	1270.92	1272.2
313.15 K, x2 = 0.408	1309.33	1248.6
313.15 K, x2 = 0.4987	1335.67	1234.1
313.15 K, x2 = 0.602	1359.98	1220.9
313.15 K, x2 = 0.7047	1379.79	1211.8
313.15 K, x2 = 0.7945	1394.5	1205
313.15 K, x2 = 0.8971	1408.84	1199.3
318.15 K, x2 = 0.0606	1097.57	1383.2
318.15 K, x2 = 0.1118	1147.96	1343.7
318.15 K, x2 = 0.2003	1211.95	1297.3
318.15 K, x2 = 0.3056	1266.24	1260.6
318.15 K, x2 = 0.408	1304.59	1237.3
318.15 K, x2 = 0.4987	1330.88	1223.1
318.15 K, x2 = 0.602	1355.18	1210.1
318.15 K, x2 = 0.7047	1374.95	1201
318.15 K, x2 = 0.7945	1389.43	1194.3
318.15 K, x2 = 0.8971	1404.09	1188.6
